Results reported in patent US8546085B2, “Methods of identifying modulators of the bitter taste receptor TAS2R44” (Givaudan SA, priority 2008, dated 2013).
Like-named read-outs stand apart in the source and are kept apart here.

Key:
[1] = system: bitter taste/aftertaste of Rebaudioside A; test: Sensory evaluation of bitter blocking by 8 bitter-sensitive panelists; type: in vivo, human
Method: 4-(2,2,3-trimethyl-cyclopentyl)-butanoic acid was sensorically evaluated for its bitter blocking characteristics by 8 bitter-sensitive panelists.
The following samples in water were evaluated and compared in their bitter taste/aftertaste: • Rebaudioside A (60 ppm) with bitter blocker (10 ppm) • Rebaudioside A (60 ppm) without bitter blocker • Rebaudioside A (230 ppm, isosweet to 7% sugar in water) • Rebaudioside A (230 ppm) with bitter blocker (10 ppm 30 ppm and 50 ppm)
20 ml of each sample was presented in random order.

TAS2R44 = target: T1, TAS2R44 (Homo sapiens, UniProt P59538, L162M); test: Fluo-4 calcium assay, antagonists of the response of TAS2R44 to steviol glycosides; type: cell-based
T1 construct: The full length gene of human TAS2R44 was amplified by polymerase chain reaction (PCR) using gene-specific primers that span the entire coding region; RSS tag (first 45 amino acids of rat somatostatin receptor subtype 3, plus EcoRI site) (N); expressed in transfected cells; host or cells: HEK293T/Galpha16-gustducin 44 cells, stably transfected with pcDNA3.1Zeo-TAS2R44
T1 sequence (P59538 with tags, fused parts or gaps L162M): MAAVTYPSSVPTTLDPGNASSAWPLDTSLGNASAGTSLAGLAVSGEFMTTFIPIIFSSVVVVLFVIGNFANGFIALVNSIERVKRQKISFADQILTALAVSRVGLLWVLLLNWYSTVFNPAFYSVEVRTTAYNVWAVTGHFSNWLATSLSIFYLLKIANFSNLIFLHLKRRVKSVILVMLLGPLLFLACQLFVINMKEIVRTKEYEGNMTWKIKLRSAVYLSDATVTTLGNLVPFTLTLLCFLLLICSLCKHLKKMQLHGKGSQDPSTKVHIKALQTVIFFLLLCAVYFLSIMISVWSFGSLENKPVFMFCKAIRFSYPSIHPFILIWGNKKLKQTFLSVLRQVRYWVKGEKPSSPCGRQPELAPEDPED
Method: All cells were HEK293T cells stably expressing Gα16-gustducin44, or expressing Gα16-gustducin44 and TAS2R44.
The method was carried out as described in example 3 subject to the following modifications:
The samples were tested with and without candidate bitter blocker and the signals were compared. The candidate bitter blocker was dissolved in dimethylsulfoxide (DMSO), and a negative control with equivalent DMSO concentration (0.02%) was performed accordingly to exclude a potential inhibitory effect of the solvent. Furthermore, a control with the relevant steviol glycoside and DMSO (0.02%) was performed accordingly (see table in example 5).
All data was calculated as ΔF/F0 and the standard deviation (STD) is indicated in each table, see results for the identified bitter blocker 4-(2,2,3-trimethyl-cyclopentyl)-butanoic acid below.

## CC1CCC(CCCC(=O)O)C1(C)C (centres unmarked) [4-(2,2,3-trimethyl-cyclopentyl)-butanoic acid]
[1]; 10 ppm bitter blocker, in water
  effect on bitterness of Rebaudioside A: blocked the upfront bitterness but some lingering bitterness/aftertaste remained
[1]; 30 ppm bitter blocker, Rebaudioside A 230 ppm in water
  effect on bitterness of Rebaudioside A: improved effect to reduce the lingering bitterness/bitter aftertaste
[1]; 50 ppm bitter blocker, Rebaudioside A 230 ppm in water
  effect on bitterness of Rebaudioside A: improved effect to reduce the lingering bitterness/bitter aftertaste
[1]; 60 ppm, in water
  effect on bitterness of Rebaudioside A: completely blocked the bitterness including the bitter aftertaste
[1]; all panelists, samples in water
  effect on bitter taste/aftertaste of Rebaudioside A: blocked or significantly reduced the bitter taste/aftertaste
TAS2R44; 0.7 mM rebaudioside A (EC50) + bitter blocker 0.098 μM
  TAS2R44 ΔF/F0: 0.4022
TAS2R44; 0.7 mM rebaudioside A (EC50) + bitter blocker 0.195 μM
  TAS2R44 ΔF/F0: 0.3678
TAS2R44; 0.7 mM rebaudioside A (EC50) + bitter blocker 0.391 μM
  TAS2R44 ΔF/F0: 0.2825
TAS2R44; 0.7 mM rebaudioside A (EC50) + bitter blocker 0.781 μM
  TAS2R44 ΔF/F0: 0.2156
TAS2R44; 0.7 mM rebaudioside A (EC50) + bitter blocker 1.563 μM
  TAS2R44 ΔF/F0: 0.1328
TAS2R44; 0.7 mM rebaudioside A (EC50) + bitter blocker 3.125 μM
  TAS2R44 ΔF/F0: 0.1225
TAS2R44; 0.7 mM rebaudioside A (EC50) + bitter blocker 6.250 μM
  TAS2R44 ΔF/F0: 0.1794
TAS2R44; 0.7 mM rebaudioside A (EC50) + bitter blocker 12.50 μM
  TAS2R44 ΔF/F0: 0.2056
TAS2R44; 0.7 mM rebaudioside A (EC50) + bitter blocker 25.00 μM
  TAS2R44 ΔF/F0: 0.2275
TAS2R44; 0.7 mM rebaudioside A (EC50) + bitter blocker 50.00 μM
  TAS2R44 ΔF/F0: 0.2347
TAS2R44; 0.7 mM rebaudioside A (EC50) + bitter blocker 100.0 μM
  TAS2R44 ΔF/F0: 0.2238
TAS2R44; 2.2 mM stevioside (EC50) + bitter blocker 0.098 μM
  TAS2R44 ΔF/F0: 0.665
TAS2R44; 2.2 mM stevioside (EC50) + bitter blocker 0.195 μM
  TAS2R44 ΔF/F0: 0.596
TAS2R44; 2.2 mM stevioside (EC50) + bitter blocker 0.391 μM
  TAS2R44 ΔF/F0: 0.555
TAS2R44; 2.2 mM stevioside (EC50) + bitter blocker 0.781 μM
  TAS2R44 ΔF/F0: 0.491
TAS2R44; 2.2 mM stevioside (EC50) + bitter blocker 1.563 μM
  TAS2R44 ΔF/F0: 0.431
TAS2R44; 2.2 mM stevioside (EC50) + bitter blocker 3.125 μM
  TAS2R44 ΔF/F0: 0.430
TAS2R44; 2.2 mM stevioside (EC50) + bitter blocker 6.250 μM
  TAS2R44 ΔF/F0: 0.328
TAS2R44; 2.2 mM stevioside (EC50) + bitter blocker 12.50 μM
  TAS2R44 ΔF/F0: 0.293
TAS2R44; 2.2 mM stevioside (EC50) + bitter blocker 25.00 μM
  TAS2R44 ΔF/F0: 0.252
TAS2R44; 2.2 mM stevioside (EC50) + bitter blocker 50.00 μM
  TAS2R44 ΔF/F0: 0.238
TAS2R44; 2.2 mM stevioside (EC50) + bitter blocker 100.0 μM
  TAS2R44 ΔF/F0: 0.212
TAS2R44; inhibition of the response to 0.7 mM rebaudioside A, read-out: IC50 concentration for rebaudioside
  IC50: 357 nM
TAS2R44; inhibition of the response to 2.2 mM stevioside, read-out: IC50 concentration for stevioside
  IC50: 578 nM
